Measurements: patent publication US10844013B2, “Phenyl amino piperidine mTORC inhibitors and uses thereof” (Navitor Pharmaceuticals, Inc., priority 2016, dated 2020)
Read-outs that look alike come from different tables or passages of the source.

Tests used:
Assay type in all cases: cell-based
[1] = test system: MCF-7 cells; assay: ATP/Rotenone assay, glucose dose response, MCF-7 cells; settings: Homo sapiens, MCF7, 10 uM rotenone pre-treat, 15 min glucose, Celltiter-Glo
Protocol: (§1) Example 158: ATP/Rotenone Assay
(§2) Day 1: Plate cells in Corning 96-Well Clear Bottom Black Polystyrene Microplates (corning 3340) in Glucose-free DMEM+10% dFBS • 80 uL/well • 25,000 cells/well for 293T • 10,000 cells/well for MCF7
(§3) Glucose DR to Establish Glucose EC50
(§4) • 1. […] Determine Compound IC50s • 1. 1 h pre-treat Rotenone/compound solution • Make 9× (90 uM) rotenone: 10 mM stock of Rotenone fresh—dilute 1:111× in Glucose-free DMEM). • Make compound dilution series in DMSO then dilute 1:111 in 90 uM rotenone in glucose-free media • Add 10 uL of 9× rotenone/compound solutions per well • 2. Stimulate with glucose for 15 min • Make glucose DR at 10× concentration in glucose-free DMEM • Add 10 uL per well and incubate at 37° C. for 15 min 3. Reconstitute and Measure • Remove plate, immediately add 100 uL of reconstituted Celltiter-Glo reagent (Promega; G7570) per well • Shake plate covered for 10 min at room temperature • Let plate sit for 2-5 min, read luminescence • Calculate IC50 for compounds

[2] = test system: 293T cells; assay: ATP/Rotenone assay, glucose dose response, 293T cells; settings: Homo sapiens, HEK-293T, 10 uM rotenone pre-treat, 15 min glucose, Celltiter-Glo
Protocol: as §1, §2, §3, §4

[3] = test system: pAKT (p-Akt 1/2/3 (Ser473)) in MCF-7 cells; assay: AlphaLISA Ultra pAKT assay; settings: Homo sapiens, MCF7, 2 hours compound incubation
Method in brief: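 AlphaLISA read-out (2 h acceptor-bead, then 2 h donor-bead incubation) on thawed lysates of MCF-7 cells exposed to compounds for 2 h in 0.5% DMSO. Cells had been plated 20-24 h and given fresh medium 2 h before dosing.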

[4] = test system: pS6K1 (p-p70 S6 Kinase (Thr389)) in MCF-7 cells; assay: AlphaLISA Ultra pS6K1 assay; settings: 2 hours compound incubation
Method in brief: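 MCF-7 cells seeded 20–24 h, medium refreshed 2 h, then treated 2 h with compound (0.5% DMSO final). Lysates probed for Thr389-phosphorylated p70 S6K by AlphaLISA Ultra, 2 h acceptor then 2 h donor bead incubation, read on a multimode reader.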

[5] = test system: MCF-7 cells; assay: Radioactive glucose uptake in MCF-7 cells; settings: Homo sapiens, MCF7, 3H-2DG uptake
Protocol: Example 157: Radioactive Glucose Uptake in MCF-7 Cells
Assay Protocol • 1. Seed approximately 12,000 MCF-7 cells cultured without insulin per well in 96-well plates (BIOCOAT, #356690) and let the cells sit in hood for 30 min. (Cell culture medium: DMEM+10% FBS). • 2. Put the cell culture plates in TC incubator (5% CO2, 37° C.) and incubate overnight. • 3. Take out the cell plates and wash with prewarmed KRH buffer (37° C.) three times using BioTek plate washer. (KRH buffer preparation: 136 mM NaCl, 4.7 mM KCl, 1.25 mM MgCl2, 1.2 mM CaCl2), 20 mM HEPES, 0.1 mg/ml sodium pyruvate, 0.1% BSA, pH 7.4). • 4. Compound preparation and treatment: • a) Add 12 ul compound stock in 100% DMSO to the first column of Echo LDV plate • b) Serially dilute the compound solution in 100% DMSO (4 uL+8 uL DMSO) using Bravo for 9 doses • c) Dispense 350 nL compounds using Echo to the working plate. • d) i) Without compound preincubation condition, dispense 116 uL KRH buffer containing tritiated 2-deoxy-D-glucose (3H-2DG) and 2-deoxy-D-glucose (2DG) to the working plate and mix. • ii. With compound preincubation condition, dispense 110 uL KRH buffer only to the working plates and mix • e) Keep the compound working plate at 37° C. incubator until use • 5. Discard the KRH buffer (cells were kept in KRH buffer for 10-15 min before 2-DG addition) and transfer 100 uL compound working solution out to the cell culture plate using Bravo. Incubate for 20 mins at 37° C. (2DG final at 0.2 mM, 3H-2DG at 10 uCi/mL). • 6. Add prewarmed 50 uL KRH buffer (37° C.) containing 60 mM cold 2DG to the wells to stop the 2DG uptake using Multidrop combi • 7. Wash the cells with prewarmed PBS three times using BioTek plate washer • 8. Add 50 uL lysis buffer (0.1 M NaOH) into the assay plate to lyse the cells using Bravo and shake at 800 rpm for 30 min. • 9. Mix and transfer 20 uL lysate to a new white plate (Corning, #3610) and add 200 uL MicroScint-20 using Bravo • 10. Shake the plate at 1000 rpm for 30 min and count in a MicroBeta plate reader.

| SMILES | EC50 [1] | EC50 [2] | IC50 [3] | IC50 ([4]; Homo sapiens, MCF7, 2 h) | IC50 [5] | IC50 ([4]; read-out: pS6K1 in MCF7: IC50) |
| --- | --- | --- | --- | --- | --- | --- |
| O=C[C@H](O)[C@@H](O)[C@H](O)[C@H](O)CO [glucose] | ~250 µM | ~1000 µM |  |  |  |  |
| Cc1cc(C)c(C(=O)N2CCN(c3nnnn3C)[C@H](CO)C2)cc1NC1CCN(c2ccccc2C#N)CC1 [I-91, (S)-2-(4-(5-(3-(Hydroxymethyl)-4-(1-methyl-1H-tetrazol-5-yl)piperazine-1-carbonyl)-2,4-dimethylphenylamino)piperidin-1-yl) benzonitrile] |  |  | > 10 µM | 5 to 10 µM | 1 to 3 µM |  |
| Cc1cc(C)c(C(=O)N2CCN(c3ccccc3S(C)(=N)=O)CC2)cc1NC1CCN(c2ccccc2C#N)CC1 (single isomer, unassigned) [I-49, 2-(4-{[5-(4-{2-[(S or R)-imino(methyl)oxo-λ^6-sulfanyl]phenyl}piperazine-1-carbonyl)-2,4-dimethylphenyl]amino}piperidin-1-yl)benzonitrile] |  |  | > 10 µM |  | 0.01 to 1 µM | 0.01 to 1 µM |
| Cc1cc(C)c(C(=O)N2CCN(c3ccccc3S(N)(=O)=O)CC2)cc1NC1CN(c2ccccc2C#N)C1 [I-130, 2-(4-(5-(1-(2-Cyanophenyl)azetidin-3-ylamino)-2,4-dimethylbenzoyl)piperazin-1-yl)benzenesulfonamide] |  |  | > 10 µM | 3 to 5 µM | 3 to 5 µM |  |
| Cc1cc(C)c(C(=O)N2CCN(c3ncccc3S(N)(=O)=O)CC2)cc1NC1CCN(c2ccccc2C#N)CC1 [I-60] |  |  | > 10 µM | 1 to 3 µM | 0.01 to 1 µM |  |
| Cc1cc(C)c(C(=O)N2CCN(c3ccccc3S(N)(=O)=O)C[C@@H]2C)nc1NC1CCN(c2ccccc2C#N)CC1 [I-26, (S)-2-(4-(6-(1-(2-Cyanophenyl)piperidin-4-ylamino)-3,5-dimethylpicolinoyl)-3-methylpiperazin-1-yl)benzenesulfonamide] |  |  | > 10 µM | 0.01 to 1 µM | 0.01 to 1 µM |  |
